Measured values taken from US20160271090A1, “FRATAXIN ENHANCER” (TOKYO UNIVERSITY OF AGRICULTURE, priority 2013, published 2016).

Test system: frataxin protein in human normal fibroblast strain WI-38
Assay: Western blot of frataxin protein in WI-38 cells cultured with ALA
Assay type: cell-based
Conditions: ALA 2 mM for 2 hours in DMEM without FBS, then 24 hours in DMEM with 10% FBS, compared to Sample 2 (medium without ALA)
Experimental: • (i) Human normal fibroblast strain WI-38 was cultured in Dulbecco's modified Eagle medium (DMEM) comprising 10% fetal bovine serum (FBS) under 5% CO2. (ii) 5-Aminolevulinic acid (ALA) was added at a final concentration of 2 mM to DMEM without FBS, and cells of (i) were cultured in said medium at 37° C. for 2 hours to allow ALA to be incorporated. (iii) Then, the cells were transferred to DMEM containing 10% FBS and cultured at 37° C. for 24 hours. (iv) The cells were collected by trypsin treatment, washed with phosphate buffered saline (PBS), and then suspended in SDS sample buffer (50 mM Tris-HCl, pH6.8, 2% SDS, 2.5%-mercaptoethanol, 10% glycerol, and 0.01% bromophenol blue), and heated at 100° C. for 5 minutes to allow lysis. […] In this Example, the said cell lysate is referred to as “Sample 2.” Samples 1 and 2 were subjected to 12% SDS-polyacrylamide electrophoresis, and Western blot analysis employing an anti-human frataxin antibody (from Santa Cruz Biotechnology, cat. #sc-25820) and an HRP-labeled anti-rabbit IgG secondary antibody (from GE Healthcare, cat. #N[MUT]) was performed by conventional means. […]

NCC(=O)CCC(=O)O [ALA, 5-aminolevulinic acid]
amount of frataxin protein (Western blot, FIG. 1): clear increase
